From ChEMBL document CHEMBL1136702, “Design and synthesis of S-(-)-2-[[4-(napht-1-yl)piperazin-1-yl]methyl]-1,4-dioxoperhydropyrrolo[1,2-a]pyrazine (CSP-2503) using computational simulation. A 5-HT1A receptor agonist” (Bioorg Med Chem Lett, 2003)

Tests used:
[1] = target: T1, Adrenergic receptor alpha-1 (Rattus norvegicus, UniProt P15823+P23944+P43140); test: Binding affinity towards Alpha-1 adrenergic receptor in rat cerebral cortex membranes using [3H]prazosin as radioligand; format: cell membranes, Membrane
T1 sequence (P15823 whole entry): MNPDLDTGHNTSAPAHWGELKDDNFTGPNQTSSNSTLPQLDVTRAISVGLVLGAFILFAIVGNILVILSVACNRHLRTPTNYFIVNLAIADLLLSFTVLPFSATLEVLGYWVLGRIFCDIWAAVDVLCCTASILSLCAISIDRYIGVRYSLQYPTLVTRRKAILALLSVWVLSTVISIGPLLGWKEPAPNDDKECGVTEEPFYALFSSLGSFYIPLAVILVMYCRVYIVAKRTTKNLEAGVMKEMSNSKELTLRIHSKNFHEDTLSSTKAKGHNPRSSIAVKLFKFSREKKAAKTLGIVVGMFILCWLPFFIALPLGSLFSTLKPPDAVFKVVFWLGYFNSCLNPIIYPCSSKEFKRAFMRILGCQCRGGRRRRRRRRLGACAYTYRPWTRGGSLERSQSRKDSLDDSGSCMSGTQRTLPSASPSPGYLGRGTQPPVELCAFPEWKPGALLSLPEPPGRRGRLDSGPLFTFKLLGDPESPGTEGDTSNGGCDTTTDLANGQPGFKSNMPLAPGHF
T1 sequence (P23944 whole entry): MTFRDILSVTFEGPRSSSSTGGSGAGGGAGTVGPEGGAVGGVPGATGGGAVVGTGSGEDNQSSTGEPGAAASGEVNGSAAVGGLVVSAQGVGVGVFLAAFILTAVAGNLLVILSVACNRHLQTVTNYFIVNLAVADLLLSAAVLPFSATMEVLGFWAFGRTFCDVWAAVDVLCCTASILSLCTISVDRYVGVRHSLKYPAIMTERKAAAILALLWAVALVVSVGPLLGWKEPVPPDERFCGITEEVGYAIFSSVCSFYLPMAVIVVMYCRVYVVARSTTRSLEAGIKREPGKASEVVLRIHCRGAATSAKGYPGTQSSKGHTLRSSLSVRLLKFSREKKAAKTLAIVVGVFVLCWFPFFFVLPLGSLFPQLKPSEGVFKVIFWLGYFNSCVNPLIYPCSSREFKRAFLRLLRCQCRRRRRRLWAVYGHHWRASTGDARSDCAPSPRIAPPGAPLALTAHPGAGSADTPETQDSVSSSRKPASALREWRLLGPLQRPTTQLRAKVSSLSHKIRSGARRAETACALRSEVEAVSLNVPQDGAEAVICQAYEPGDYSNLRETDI
T1 sequence (P43140 whole entry): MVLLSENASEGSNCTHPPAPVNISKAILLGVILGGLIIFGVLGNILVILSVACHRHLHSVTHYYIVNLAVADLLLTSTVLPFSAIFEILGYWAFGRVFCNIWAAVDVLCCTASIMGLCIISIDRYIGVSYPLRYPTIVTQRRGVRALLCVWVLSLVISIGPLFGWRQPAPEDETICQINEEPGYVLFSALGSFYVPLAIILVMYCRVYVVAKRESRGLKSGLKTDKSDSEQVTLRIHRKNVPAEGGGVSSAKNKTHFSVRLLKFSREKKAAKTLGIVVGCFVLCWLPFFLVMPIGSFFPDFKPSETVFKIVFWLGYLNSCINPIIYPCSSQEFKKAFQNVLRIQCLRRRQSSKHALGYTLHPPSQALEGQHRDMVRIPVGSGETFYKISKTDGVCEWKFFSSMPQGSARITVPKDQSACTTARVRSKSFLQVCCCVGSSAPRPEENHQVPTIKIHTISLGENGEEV

[2] = target: T2, 5-hydroxytryptamine receptor 1A (Rattus norvegicus, UniProt P19327); test: Binding affinity towards 5-HT 1A receptor in rat cerebral cortex membranes using [3H]8-OH-DPAT as radioligand; format: cell membranes, Membrane
T2 sequence (P19327 whole entry): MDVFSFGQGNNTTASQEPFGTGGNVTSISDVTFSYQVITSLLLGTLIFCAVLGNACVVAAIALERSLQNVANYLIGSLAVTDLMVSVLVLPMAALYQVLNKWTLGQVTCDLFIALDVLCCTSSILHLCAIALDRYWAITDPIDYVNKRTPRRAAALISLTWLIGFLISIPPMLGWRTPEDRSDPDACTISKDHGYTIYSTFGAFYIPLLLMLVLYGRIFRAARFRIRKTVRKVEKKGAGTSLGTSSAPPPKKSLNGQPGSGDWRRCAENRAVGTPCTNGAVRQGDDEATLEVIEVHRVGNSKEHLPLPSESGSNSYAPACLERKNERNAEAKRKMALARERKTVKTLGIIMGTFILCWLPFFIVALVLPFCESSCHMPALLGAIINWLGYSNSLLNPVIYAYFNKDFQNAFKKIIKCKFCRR

[3] = target: 5-hydroxytryptamine receptor 7 (Rattus norvegicus, UniProt P32305); test: Binding affinity towards 5-HT 7 receptor in rat hypothalamus membranes using [3H]5-CT as radioligand; format: cell membranes, Membrane
D(2) dopamine receptor = D(2) dopamine receptor (Rattus norvegicus, UniProt P61169); test: Binding affinity towards dopamine D2 receptor in rat striatum membranes using [3H]raclopride as radioligand; format: cell membranes, Membrane
[4] = target: 5-hydroxytryptamine receptor 4 (Rattus norvegicus, UniProt Q62758); test: Binding affinity towards 5-HT 4 receptor in rat striatum membranes using [3H]GR-113808 as radioligand; format: cell membranes, Membrane
[5] = target: GABA-A receptor; anion channel; test: Displacement of [3H]flunitrazepam from GABA-A benzodiazepine receptor of rat cerebral cortex membranes; format: cell membranes, Membrane
[6] = target: Sodium-dependent serotonin transporter (Rattus norvegicus, UniProt P31652); test: Binding affinity towards 5-HT transporter in rat cerebral cortex membranes using [3H]paroxetine as radioligand; format: cell membranes, Membrane
[7] = target: 5-hydroxytryptamine receptor 2A (Rattus norvegicus, UniProt P14842); test: Binding affinity towards 5-HT 2A receptor in rat cerebral frontal cortex membranes using [3H]ketanserin as radioligand; format: tissue-based, Membrane
Sequence of 5-hydroxytryptamine receptor 2A (P14842 whole entry): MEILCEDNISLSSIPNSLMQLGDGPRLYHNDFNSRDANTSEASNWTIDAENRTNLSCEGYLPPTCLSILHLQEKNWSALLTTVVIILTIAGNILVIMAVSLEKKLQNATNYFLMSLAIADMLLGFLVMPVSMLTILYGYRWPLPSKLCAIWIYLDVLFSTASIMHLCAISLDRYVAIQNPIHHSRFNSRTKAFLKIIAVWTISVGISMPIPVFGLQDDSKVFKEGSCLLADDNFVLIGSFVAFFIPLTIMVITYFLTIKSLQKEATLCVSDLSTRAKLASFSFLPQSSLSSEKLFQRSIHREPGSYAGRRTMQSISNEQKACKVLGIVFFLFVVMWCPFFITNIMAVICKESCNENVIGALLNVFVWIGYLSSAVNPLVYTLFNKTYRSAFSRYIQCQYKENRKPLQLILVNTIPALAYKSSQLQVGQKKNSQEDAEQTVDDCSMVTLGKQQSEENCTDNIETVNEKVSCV

Sequence of D(2) dopamine receptor (P61169 whole entry): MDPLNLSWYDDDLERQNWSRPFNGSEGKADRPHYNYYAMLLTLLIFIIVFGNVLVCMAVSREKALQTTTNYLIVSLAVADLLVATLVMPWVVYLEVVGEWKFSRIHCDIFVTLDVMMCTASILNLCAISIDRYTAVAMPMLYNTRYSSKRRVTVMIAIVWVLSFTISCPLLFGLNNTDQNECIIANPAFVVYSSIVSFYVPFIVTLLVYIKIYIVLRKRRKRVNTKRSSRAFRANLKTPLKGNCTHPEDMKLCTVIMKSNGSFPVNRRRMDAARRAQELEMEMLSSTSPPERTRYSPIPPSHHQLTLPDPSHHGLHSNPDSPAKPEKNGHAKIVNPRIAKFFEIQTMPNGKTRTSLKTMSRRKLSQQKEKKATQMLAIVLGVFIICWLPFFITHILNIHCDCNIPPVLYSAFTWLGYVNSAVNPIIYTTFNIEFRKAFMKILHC
Sequence of 5-hydroxytryptamine receptor 7 (P32305 whole entry): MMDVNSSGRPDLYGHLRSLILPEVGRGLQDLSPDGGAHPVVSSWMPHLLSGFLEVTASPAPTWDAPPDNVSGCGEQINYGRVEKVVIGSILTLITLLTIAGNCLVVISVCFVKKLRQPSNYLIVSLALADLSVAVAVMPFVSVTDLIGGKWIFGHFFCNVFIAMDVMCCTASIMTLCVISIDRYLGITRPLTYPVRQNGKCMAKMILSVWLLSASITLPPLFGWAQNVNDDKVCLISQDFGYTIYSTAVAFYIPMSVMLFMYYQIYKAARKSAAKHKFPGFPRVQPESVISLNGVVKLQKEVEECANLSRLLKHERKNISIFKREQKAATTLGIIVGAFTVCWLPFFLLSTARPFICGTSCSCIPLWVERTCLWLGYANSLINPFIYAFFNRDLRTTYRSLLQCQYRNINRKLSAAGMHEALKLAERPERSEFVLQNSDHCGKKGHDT
Sequence of Sodium-dependent serotonin transporter (P31652 whole entry): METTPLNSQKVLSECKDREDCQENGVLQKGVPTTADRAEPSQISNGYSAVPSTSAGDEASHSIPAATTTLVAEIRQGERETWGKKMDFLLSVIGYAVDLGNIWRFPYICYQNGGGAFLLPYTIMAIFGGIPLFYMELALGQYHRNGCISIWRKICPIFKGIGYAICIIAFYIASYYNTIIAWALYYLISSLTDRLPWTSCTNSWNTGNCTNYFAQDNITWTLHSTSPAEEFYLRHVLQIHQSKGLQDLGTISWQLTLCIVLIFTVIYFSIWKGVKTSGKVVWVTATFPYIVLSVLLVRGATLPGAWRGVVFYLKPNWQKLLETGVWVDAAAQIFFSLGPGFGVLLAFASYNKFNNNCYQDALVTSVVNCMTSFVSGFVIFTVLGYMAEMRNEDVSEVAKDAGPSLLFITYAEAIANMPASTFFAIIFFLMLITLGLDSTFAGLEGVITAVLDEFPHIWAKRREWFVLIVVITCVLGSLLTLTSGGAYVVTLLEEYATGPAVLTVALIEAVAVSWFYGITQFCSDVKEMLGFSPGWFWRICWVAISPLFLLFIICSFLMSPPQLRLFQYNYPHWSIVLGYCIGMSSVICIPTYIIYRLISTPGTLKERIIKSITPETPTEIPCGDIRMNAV
Sequence of 5-hydroxytryptamine receptor 4 (Q62758 whole entry): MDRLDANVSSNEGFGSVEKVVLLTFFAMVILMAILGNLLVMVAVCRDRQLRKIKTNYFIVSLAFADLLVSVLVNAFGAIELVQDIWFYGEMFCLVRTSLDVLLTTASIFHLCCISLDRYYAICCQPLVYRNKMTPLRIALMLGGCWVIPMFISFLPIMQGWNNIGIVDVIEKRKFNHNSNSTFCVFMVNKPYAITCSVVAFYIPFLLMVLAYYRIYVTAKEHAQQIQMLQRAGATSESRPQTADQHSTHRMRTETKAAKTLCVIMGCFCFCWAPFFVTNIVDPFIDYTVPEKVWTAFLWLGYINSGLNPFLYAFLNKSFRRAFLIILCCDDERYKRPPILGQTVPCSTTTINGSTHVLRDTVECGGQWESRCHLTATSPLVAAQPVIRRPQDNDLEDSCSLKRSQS

Ki [1] [nM] | Ki [2] [nM] | Compound | other results
> 1000 | 6.1 | O=C1C2CCCCN2C(=O)N1CN1CCN(c2cccc3c2COCCO3)CC1 (configuration not stated) | 
> 1000 | 12.3 | O=C1C2CCCN2C(=O)CN1CN1CCN(c2cccc3c2COCCO3)CC1 (configuration not stated) | 
> 1000 | 4.1 | O=C1C2CCCN2C(=O)CN1CN1CCN(c2cccc3ccccc23)CC1 (configuration not stated) | Ki [3]: 101 nM; Ki (D(2) dopamine receptor): 192 nM; Ki [4]: > 10 µM; Ki [5]: > 10 µM; Ki [6]: 976 nM; Ki [7]: 13.5 nM
64.9 | 2.4 | O=C1C2CCCN2C(=O)N1CCCCN1CCN(c2cccc3ccccc23)CC1 (configuration not stated) | 
10000 | 4.1 | O=C1C2CCCN2C(=O)N1CN1CCN(c2cccc3[nH]cnc23)CC1 (configuration not stated) | 
> 1000 | 9.3 | O=C1C2CCCCN2C(=O)N1CN1CCN(c2cccc3c2OCCO3)CC1 (configuration not stated) | 
> 1000 | 10.4 | O=C1C2CCCN2C(=O)N1CN1CCN(c2cccc3ccccc23)CC1 (configuration not stated) | 
> 1000 | 5.6 | O=C1C2CCCCN2C(=O)N1CN1CCN(c2cccc3ccccc23)CC1 (configuration not stated) | 
